Experimental data as given in patent US9247759B2, “Identification of human T2R receptors that respond to bitter compounds that elicit the bitter taste in compositions, and the use thereof in assays to identify compounds that inhibit (block) bitter taste in compositions and use thereof” (SENOMYX, INC., priority 2007, dated 2016).
Where two headings read alike, the source gives them in different places.

Tests used:
[1] = molecular target: T1, hT2R14 (Homo sapiens (Human), UniProt Q9NYV8); experiment: hT2R panel inhibition, transient HEK293 G16g44, agonist Aristolochic Acid 2 μM; format: cell-based; details: HEK293, compound at 25 μM
Outline: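 Agonist challenge was at EC80, with 0.5 mM andrographolide on hT2R8 and 2 μM aristolochic acid on hT2R14. Inhibition was measured in functional assays in HEK293 cells that stably carry the promiscuous G protein G16g44 and were transiently transfected with the individual receptor.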

[2] = molecular target: hT2R61 (Homo sapiens (Human), UniProt P59537); experiment: hT2R panel inhibition, transient HEK293 G16g44, agonist Aristolochic Acid 25 nM; format: cell-based; details: HEK293, compound at 25 μM
Outline: (§1)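 One receptor per transfection, EC80 agonist, activity drop with compound = inhibition.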

[3] = molecular target: hT2R71 (Homo sapiens (Human), UniProt P59536); experiment: hT2R panel inhibition, transient HEK293 G16g44, agonist Picric Acid 10 μM; format: cell-based; details: HEK293, compound at 25 μM
Outline: as §1

[4] = molecular target: hT2R7 (Homo sapiens (Human), UniProt Q9NYW3); experiment: hT2R panel inhibition, transient HEK293 G16g44, agonist Chloroquine pH6.5 10 mM; format: cell-based; details: HEK293, compound at 25 μM
Outline: as §1

[5] = molecular target: hT2R13 (Homo sapiens (Human), UniProt Q9NYV9); experiment: hT2R panel inhibition, transient HEK293 G16g44, agonist Oxyphenonium 1 mM; format: cell-based; details: HEK293, compound at 25 μM; receptor activated to EC80 with agonist; read-out: inhibition of bitter receptor 13
Procedure: (§2) Specifically, in order to evaluate the inhibitory selectivity of the Compound C compound, this compound was tested against 22 human T2Rs which were deorphaned by Senomyx. These receptors and the bitter ligands that activate these human T2Rs are reported in earlier patent applications which are incorporated by reference herein. These 22 human T2Rs are hT2R1, 3, 4, 5, 7, 8, 9, 10, 13, 14, 16, 44, 51, 54, 55, 61, 63, 64, 65, 67, 71 and 75. The amino acid and nucleic acid sequences of all of these T2Rs may be found in these earlier patent applications. These human T2Rs were each individually transiently transfected into HEK293 cells that stably express the promiscuous G protein G16g44 and functional assays were effected using these receptors as disclosed in these same patent applications. […] The ligands were used at EC80 concentration levels. The list of bitter ligands utilized and the tested ligand concentrations are contained in Table 5 of this example.
(§3) Relating to the foregoing, FIG. 5 contains experimental results wherein Compound C was tested with different agonist compounds. The inhibition activity is represented by the reduction of receptor activity in the presence of Compound C. […] These 13 hT2Rs are hT2R3, 7, 10, 14, 16, 44, 51, 55, 61, 63, 64, 65, and 71.

[6] = molecular target: hT2R5 (Homo sapiens (Human), UniProt Q9NYW4); experiment: hT2R panel inhibition, transient HEK293 G16g44, agonist Picoline 10 mM; format: cell-based; details: HEK293, compound at 25 μM
Outline: as §1

[7] = molecular target: T1, hT2R14; experiment: hT2R14 antagonist high-throughput FLIPR assay, stable cell line with G16g44, agonist aristolochic acid; format: cell-based
Outline: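 Compounds were co-applied with 3 μM aristolochic acid, a dose set to reach 70-80% of maximal hT2R14 activation. Read-out was FLIPR fluorescence in a stable HEK293 line co-expressing hT2R14 and G16g44.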

[8] = tested on: hT2R63; experiment: hT2R panel inhibition, transient HEK293 G16g44, agonist Caffeine 1 mM or Andrographolide 100 μM; format: cell-based, human; details: compound at 25 μM
Outline: as §1

[9] = tested on: hT2R44; experiment: hT2R panel inhibition, transient HEK293 G16g44, agonist Denatonium 0.5 μM; format: cell-based, human; details: compound at 25 μM
Outline: as §1

[10] = molecular target: hT2R64 (Homo sapiens (Human), UniProt P59538); experiment: hT2R panel inhibition, transient HEK293 G16g44, agonist Aristolochic Acid 1 μM; format: cell-based; details: HEK293, compound at 25 μM; receptor activated to EC80 with the corresponding agonist; read-out: screening result against bitter receptor 64
Outline: as §1

[11] = molecular target: hT2R3 (Homo sapiens (Human), UniProt Q9NYW6); experiment: hT2R panel inhibition, transient HEK293 G16g44, agonist Chloroquine pH6.5 50 μM; format: cell-based; details: HEK293, compound at 25 μM; receptor activated to EC80 with the corresponding agonist; read-out: screening result against bitter receptor 3
Outline: as §1

[12] = molecular target: hT2R4 (Homo sapiens (Human), UniProt Q9NYW5); experiment: hT2R panel inhibition, transient HEK293 G16g44, agonist Chloroquine pH6.5 5 mM; format: cell-based; details: HEK293, compound at 25 μM; receptor activated to EC80 with the corresponding agonist; class symbols; read-out: screening result against bitter receptor 4
Outline: as §1

[13] = tested on: hT2R54; experiment: hT2R panel inhibition, transient HEK293 G16g44, agonist Ranitidine 5 mM; format: cell-based, human; details: compound at 25 μM; receptor activated to EC80 with the corresponding agonist
Outline: as §1

[14] = tested on: hT2R67; experiment: hT2R panel inhibition, transient HEK293 G16g44, agonist Andrographolide 5 μM; format: cell-based, human; details: compound at 25 μM; receptor activated to EC80 with the corresponding agonist
Outline: as §1

[15] = molecular target: hT2R10 (Homo sapiens (Human), UniProt Q9NYW0); experiment: hT2R panel inhibition, transient HEK293 G16g44, agonist Strychnine 50 μM; format: cell-based; details: HEK293, read-out: screening result against bitter receptor 10, compound at 25 μM; receptor activated to EC80 with the corresponding agonist
[16] = molecular target: hT2R9 (Homo sapiens (Human), UniProt Q9NYW1); experiment: hT2R panel inhibition, transient HEK293 G16g44, agonist Ofloxacin 1 mM; format: cell-based; details: HEK293, compound at 25 μM; receptor activated to EC80 with the corresponding agonist; read-out: screening result against bitter receptor 9
Procedure: as §2, §3

[17] = molecular target: hT2R16 (Homo sapiens (Human), UniProt Q9NYV7); experiment: hT2R panel inhibition, transient HEK293 G16g44, agonist Salicin 1 mM; format: cell-based; details: HEK293, compound at 25 μM; receptor activated to EC80 with the corresponding agonist; read-out: screening result against bitter receptor 16
Outline: as §1

[18] = tested on: hT2R55; experiment: hT2R panel inhibition, transient HEK293 G16g44, agonist Cinchonine 150 μM; format: cell-based, human; details: compound at 25 μM; receptor activated to EC80 with the corresponding agonist
Outline: as §1

[19] = tested on: hT2R65; experiment: hT2R panel inhibition, transient HEK293 G16g44, agonist Oleuropein 1 mM; format: cell-based, human; details: compound at 25 μM; receptor activated to EC80 with the corresponding agonist
Outline: as §1

[20] = molecular target: hT2R51 (Homo sapiens (Human), UniProt P59533); experiment: hT2R panel inhibition, transient HEK293 G16g44, agonist Prop 2.5 μM; format: cell-based; details: HEK293, compound at 25 μM; receptor activated to EC80 with the corresponding agonist; read-out: screening result against bitter receptor 51
Outline: as §1

[21] = molecular target: hT2R75 (Homo sapiens (Human), UniProt P59540); experiment: hT2R panel inhibition, transient HEK293 G16g44, agonist Strychnine 1 μM; format: cell-based; details: HEK293, read-out: screening result against bitter receptor 75, compound at 25 μM; receptor activated to EC80 with the corresponding agonist
[22] = receptor activated to EC80 with agonist, read-out: inhibition of bitter receptor 14
[23] = receptor activated to EC80 with agonist, read-out: inhibition of bitter receptor 71
[24] = receptor activated to EC80 with agonist
[25] = receptor activated to EC80 with the corresponding agonist

hT2R71, sequence (P59536 whole entry): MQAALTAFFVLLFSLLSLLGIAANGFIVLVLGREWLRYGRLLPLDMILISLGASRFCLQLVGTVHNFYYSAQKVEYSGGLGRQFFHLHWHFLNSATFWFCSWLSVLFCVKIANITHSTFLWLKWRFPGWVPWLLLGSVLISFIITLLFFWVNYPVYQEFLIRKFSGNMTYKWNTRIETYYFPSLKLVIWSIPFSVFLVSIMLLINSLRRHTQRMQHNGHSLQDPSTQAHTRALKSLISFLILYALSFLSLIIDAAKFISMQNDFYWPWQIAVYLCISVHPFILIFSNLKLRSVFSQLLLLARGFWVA
T1 sequence (Q9NYV8 whole entry): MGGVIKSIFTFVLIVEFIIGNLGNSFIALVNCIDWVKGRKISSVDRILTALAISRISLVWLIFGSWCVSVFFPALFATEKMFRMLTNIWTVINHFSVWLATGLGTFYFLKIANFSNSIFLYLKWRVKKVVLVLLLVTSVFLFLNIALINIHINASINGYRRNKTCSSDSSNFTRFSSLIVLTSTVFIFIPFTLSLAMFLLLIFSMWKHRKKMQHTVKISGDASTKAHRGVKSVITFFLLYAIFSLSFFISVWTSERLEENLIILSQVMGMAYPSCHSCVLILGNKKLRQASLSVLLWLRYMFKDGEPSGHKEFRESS
hT2R13, sequence (Q9NYV9 whole entry): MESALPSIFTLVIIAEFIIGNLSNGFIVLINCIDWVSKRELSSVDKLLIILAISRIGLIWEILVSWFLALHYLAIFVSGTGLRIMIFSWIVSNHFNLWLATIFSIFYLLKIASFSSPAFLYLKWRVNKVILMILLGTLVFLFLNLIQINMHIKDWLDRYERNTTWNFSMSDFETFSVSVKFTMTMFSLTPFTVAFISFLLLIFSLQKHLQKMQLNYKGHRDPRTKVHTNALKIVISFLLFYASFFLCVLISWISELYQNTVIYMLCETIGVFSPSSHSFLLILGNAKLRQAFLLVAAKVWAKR
hT2R7, sequence (Q9NYW3 whole entry): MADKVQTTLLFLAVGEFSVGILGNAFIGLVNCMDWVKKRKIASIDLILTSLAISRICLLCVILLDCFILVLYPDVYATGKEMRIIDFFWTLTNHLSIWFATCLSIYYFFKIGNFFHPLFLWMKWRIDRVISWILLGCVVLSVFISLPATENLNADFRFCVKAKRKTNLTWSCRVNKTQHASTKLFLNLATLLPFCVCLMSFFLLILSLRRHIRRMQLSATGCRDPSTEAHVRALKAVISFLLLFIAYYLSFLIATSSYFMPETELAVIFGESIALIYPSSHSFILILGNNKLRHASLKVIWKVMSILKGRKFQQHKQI
hT2R61, sequence (P59537 whole entry): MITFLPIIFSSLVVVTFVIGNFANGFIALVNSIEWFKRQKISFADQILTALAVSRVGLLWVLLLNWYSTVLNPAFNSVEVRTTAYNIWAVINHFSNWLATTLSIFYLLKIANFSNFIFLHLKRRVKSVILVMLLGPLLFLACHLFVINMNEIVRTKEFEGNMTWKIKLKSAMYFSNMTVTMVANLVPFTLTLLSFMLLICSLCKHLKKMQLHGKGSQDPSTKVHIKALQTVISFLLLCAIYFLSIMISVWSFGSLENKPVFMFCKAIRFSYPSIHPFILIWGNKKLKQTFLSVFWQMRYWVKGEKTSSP
hT2R5, sequence (Q9NYW4 whole entry): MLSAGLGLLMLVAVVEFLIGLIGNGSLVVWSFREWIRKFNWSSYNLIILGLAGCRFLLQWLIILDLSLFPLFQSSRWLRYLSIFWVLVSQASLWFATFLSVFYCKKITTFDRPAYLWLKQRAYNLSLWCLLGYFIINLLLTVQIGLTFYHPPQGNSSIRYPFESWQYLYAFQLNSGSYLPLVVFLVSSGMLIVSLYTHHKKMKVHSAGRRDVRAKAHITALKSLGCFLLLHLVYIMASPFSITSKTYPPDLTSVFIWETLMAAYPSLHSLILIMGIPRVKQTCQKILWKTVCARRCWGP
hT2R9, sequence (Q9NYW1 whole entry): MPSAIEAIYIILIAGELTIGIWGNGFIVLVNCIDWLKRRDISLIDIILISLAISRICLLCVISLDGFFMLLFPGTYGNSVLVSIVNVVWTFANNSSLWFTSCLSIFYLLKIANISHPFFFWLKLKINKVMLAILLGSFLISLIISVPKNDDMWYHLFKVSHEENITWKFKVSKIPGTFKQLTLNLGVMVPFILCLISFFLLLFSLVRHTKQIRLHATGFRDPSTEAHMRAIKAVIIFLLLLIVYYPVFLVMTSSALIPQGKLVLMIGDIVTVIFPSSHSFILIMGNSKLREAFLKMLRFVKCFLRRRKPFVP
hT2R4, sequence (Q9NYW5 whole entry): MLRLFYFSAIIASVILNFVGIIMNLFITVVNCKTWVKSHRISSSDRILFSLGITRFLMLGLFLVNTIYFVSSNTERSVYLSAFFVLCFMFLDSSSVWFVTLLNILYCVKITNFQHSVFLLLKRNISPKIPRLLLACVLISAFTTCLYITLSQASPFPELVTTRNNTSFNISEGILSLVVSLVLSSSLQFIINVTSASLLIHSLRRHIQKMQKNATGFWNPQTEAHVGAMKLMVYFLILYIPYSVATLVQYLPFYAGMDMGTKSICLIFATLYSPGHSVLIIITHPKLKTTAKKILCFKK
hT2R51, sequence (P59533 whole entry): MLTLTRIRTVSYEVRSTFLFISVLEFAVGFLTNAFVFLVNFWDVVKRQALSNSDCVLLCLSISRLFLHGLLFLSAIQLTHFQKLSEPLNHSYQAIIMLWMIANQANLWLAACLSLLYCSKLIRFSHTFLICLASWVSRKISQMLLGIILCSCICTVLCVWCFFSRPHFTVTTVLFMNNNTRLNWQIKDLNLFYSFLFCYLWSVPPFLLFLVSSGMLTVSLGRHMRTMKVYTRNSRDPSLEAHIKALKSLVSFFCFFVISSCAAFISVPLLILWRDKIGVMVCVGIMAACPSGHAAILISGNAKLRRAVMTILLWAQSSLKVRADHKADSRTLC
hT2R75, sequence (P59540 whole entry): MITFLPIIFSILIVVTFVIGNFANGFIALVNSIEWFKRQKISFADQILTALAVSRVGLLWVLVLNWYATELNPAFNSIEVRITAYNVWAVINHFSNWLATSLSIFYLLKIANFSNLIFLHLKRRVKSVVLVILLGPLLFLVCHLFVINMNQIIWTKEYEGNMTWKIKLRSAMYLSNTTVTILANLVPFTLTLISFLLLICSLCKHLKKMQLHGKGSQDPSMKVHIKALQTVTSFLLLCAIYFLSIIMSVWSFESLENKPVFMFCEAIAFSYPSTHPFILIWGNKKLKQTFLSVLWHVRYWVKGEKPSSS
hT2R3, sequence (Q9NYW6 whole entry): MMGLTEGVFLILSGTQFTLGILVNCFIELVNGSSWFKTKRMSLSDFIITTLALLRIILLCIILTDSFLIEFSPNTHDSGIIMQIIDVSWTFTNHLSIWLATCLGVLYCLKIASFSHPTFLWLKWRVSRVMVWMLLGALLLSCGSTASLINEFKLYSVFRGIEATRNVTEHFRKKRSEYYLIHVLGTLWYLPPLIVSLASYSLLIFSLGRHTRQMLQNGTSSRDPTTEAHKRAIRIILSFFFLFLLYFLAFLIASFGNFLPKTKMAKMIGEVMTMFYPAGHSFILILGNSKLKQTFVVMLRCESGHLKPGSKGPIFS
hT2R10, sequence (Q9NYW0 whole entry): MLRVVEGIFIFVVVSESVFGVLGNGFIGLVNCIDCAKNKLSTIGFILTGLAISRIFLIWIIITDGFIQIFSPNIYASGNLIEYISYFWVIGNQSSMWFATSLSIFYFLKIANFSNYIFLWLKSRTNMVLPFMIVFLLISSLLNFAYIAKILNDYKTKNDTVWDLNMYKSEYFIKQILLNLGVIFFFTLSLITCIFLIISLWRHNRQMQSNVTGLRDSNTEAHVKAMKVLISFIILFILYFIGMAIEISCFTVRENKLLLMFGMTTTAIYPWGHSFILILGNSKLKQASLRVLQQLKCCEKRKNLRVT
hT2R64, sequence (P59538 whole entry): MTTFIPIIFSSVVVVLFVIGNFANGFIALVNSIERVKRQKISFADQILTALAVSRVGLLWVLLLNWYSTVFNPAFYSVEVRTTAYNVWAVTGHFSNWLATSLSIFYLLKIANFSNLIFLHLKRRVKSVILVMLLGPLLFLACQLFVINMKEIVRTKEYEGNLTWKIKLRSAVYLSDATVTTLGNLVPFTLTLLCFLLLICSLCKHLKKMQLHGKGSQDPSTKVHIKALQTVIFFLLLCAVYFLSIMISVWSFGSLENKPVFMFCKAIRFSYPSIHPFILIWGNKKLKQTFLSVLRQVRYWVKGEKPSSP
hT2R16, sequence (Q9NYV7 whole entry): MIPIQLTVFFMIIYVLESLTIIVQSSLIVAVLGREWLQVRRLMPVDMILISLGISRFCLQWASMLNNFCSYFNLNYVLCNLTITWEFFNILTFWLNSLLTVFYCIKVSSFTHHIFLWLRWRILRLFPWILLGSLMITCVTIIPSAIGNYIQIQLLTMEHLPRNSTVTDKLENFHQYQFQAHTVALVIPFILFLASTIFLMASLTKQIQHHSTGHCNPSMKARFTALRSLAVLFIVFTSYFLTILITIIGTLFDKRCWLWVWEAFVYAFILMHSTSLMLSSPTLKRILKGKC

For `CCN(C(=O)CN(C)S(=O)(=O)c1ccc2c(c1)n(C)c(=O)c(=O)n2C)c1cccc(C)c1` [Example 6-11, N-ethyl-N-m-tolyl-2-(N,1,4-trimethyl-2,3-dioxo-1,2,3,4-tetrahydroquinoxaline-6-sulfonamido)acetamide], the inhibition at 25 µM [1, 22] was 20 to 40%, the inhibition at 25 µM ([2]; receptor activated to EC80 with agonist, read-out: inhibition of bitter receptor 61) was 20 to 40% and the inhibition at 25 µM [3, 23] was 20 to 40%. For the same molecule, the inhibition at 25 µM ([4]; receptor activated to EC80 with agonist, read-out: inhibition of bitter receptor 7) was 20 to 40%, the inhibition at 25 µM [5] was 40 to 60% and the inhibition at 25 µM ([6]; receptor activated to EC80 with agonist, read-out: inhibition of bitter receptor 5) was 20 to 40%. It also gave an IC50 ([7]; Table D, read-out: hT2R14 IC50) of 14.9 µM.
For `Cn1c(=O)c(=O)n(C)c2cc(S(=O)(=O)Nc3ccc4c(c3)OCCO4)ccc21` [Example 6-3, N-(2,3-dihydrobenzo[b][1,4]dioxin-6-yl)-1,4-dimethyl-2,3-dioxo-1,2,3,4-tetrahydroquinoxaline-6-sulfonamide], the inhibition at 25 µM [1, 22] was greater than 80%, the inhibition at 25 µM [3, 23] was 20 to 40% and the “inhibition of bitter receptor 63” value [8, 24] was “+ (20% to 40% inhibition = +)”. For the same molecule, the inhibition at 25 µM [5] was 20 to 40%, the “inhibition of bitter receptor 44” value [9, 24] was “+ (20% to 40% inhibition = +)” and the IC50 ([7]; read-out: IC50 on hT2R14 bitter receptor) was 7.71 µM.
With `O=C(O)c1ccc(CN(Cc2cccc(F)c2)S(=O)(=O)c2ccccc2)cc1` [Example 5-104, 4-((N-(3-fluorobenzyl)phenylsulfonamido)methyl)-benzoic acid] the inhibition at 25 µM ([1]; receptor activated to EC80 with the corresponding agonist, read-out: screening result against bitter receptor 14) was greater than 80%, the inhibition at 25 µM ([2]; receptor activated to EC80 with the corresponding agonist, read-out: screening result against bitter receptor 61) was greater than 80% and the inhibition at 25 µM [10] was greater than 80%. For the same molecule, the inhibition at 25 µM ([3]; receptor activated to EC80 with the corresponding agonist, read-out: screening result against bitter receptor 71) was 60 to 80%, the inhibition at 25 µM [11] was 40 to 60% and the inhibition at 25 µM ([4]; receptor activated to EC80 with the corresponding agonist, read-out: screening result against bitter receptor 7) was 40 to 60%. For the same molecule, the inhibition at 25 µM [12] was 40 to 60%, the “screening result against bitter receptor 54” value [13] was “+ (20% to 40% inhibition = +)” and the “screening result against bitter receptor 67” value [14] was “++ (40% to 60% inhibition = ++)”. It also gave an inhibition at 25 µM [15] of 40 to 60%, an inhibition at 25 µM [16] of 20 to 40% and an inhibition at 25 µM [17] of 20 to 40%. The “screening result against bitter receptor 63” value [8, 25] was “++ (40% to 60% inhibition = ++)”, the “screening result against bitter receptor 55” value [18] was “+++ (60% to 80% inhibition = +++)” and the “screening result against bitter receptor 65” value [19] was “+++ (60% to 80% inhibition = +++)”. It also gave an inhibition at 25 µM [20] of 20 to 40%, an inhibition at 25 µM [21] of 40 to 60% and an inhibition at 25 µM ([6]; receptor activated to EC80 with the corresponding agonist, read-out: screening result against bitter receptor 5) of 40 to 60%. The “screening result against bitter receptor 44” value [9, 25] was “+++ (60% to 80% inhibition = +++)” and the IC50 ([7]; Table C, read-out: hT2R14 IC50) was 0.406 µM.
